Values after ≈ are worked out from the molar mass of the structure shown.

One experiment deals with MCF7. The experiment is described as follows: Cytotoxicity against human MCF7 cells by MTT method. It counts as cell-based. Background: Tetrazolium assays rely on reduction of a dye to a coloured formazan, in cell work by metabolically active cells.
The subject of another experiment is MDA-MB-231. Briefly: Cytotoxicity against human MDA-MB-231 cells by MTT method. It counts as cell-based.
For the next experiment, the system named is A549. The experiment is described as follows: Cytotoxicity against human A549 cells by MTT method. It counts as cell-based.
For the next experiment, the system named is HepG2. The experiment is described as follows: Cytotoxicity against human HepG2 cells by MTT method. It counts as cell-based.
A short description of experiment [1]: Cytotoxicity against human Hep3B cells by MTT method. The class given is cell-based, Hep 3B2.
In another experiment the test system is MRC5. Briefly: Cytotoxicity against human MRC5 cells by MTT method. It counts as cell-based.

For orientation: IC50 means the concentration that inhibits the measured activity by half. Read a low IC50 as greater potency. Take `C[C@@]12CC([C@@]3(O)[C@H](O)C[C@H]4[C@@H]5C[C@H](Cl)[C@]6(O)[C@@H](O)C=CC(=O)[C@]6(C)[C@H]5CC[C@@]43C)[C@@H](C1)OC(=O)[C@]2(C)O` (stereo partly drawn) [ANOMANOLIDE D]: the half-maximal inhibitory concentration (IC50) with MCF7 is greater than 20 µg/mL; with MDA-MB-231, greater than 20 µg/mL; in the experiment on A549, greater than 20 µg/mL; in the experiment with HepG2, greater than 20 µg/mL; in experiment [1], 19 µg/mL (≈ 35.3 µM).
Turning to `CC1=C(C)C(=O)O[C@@H]([C@@H](C)[C@@]2(C)C3=C(C[C@H]2O)[C@@H]2C[C@H](Cl)[C@]4(O)[C@@H](O)C=CC(=O)[C@]4(C)[C@H]2CC3)C1` [TUBOCAPSENOLIDE G], the half-inhibitory concentration (IC50) with MCF7 is greater than 20 µg/mL; in the experiment with MDA-MB-231, greater than 20 µg/mL; in the experiment with A549, 19.9 µg/mL (≈ 39.5 µM); in the experiment on HepG2, 19.1 µg/mL (≈ 37.9 µM); in experiment [1] it was greater than 20 µg/mL.
`C[C@@]12CC([C@@]3(O)[C@H](O)C[C@H]4[C@@H]5C[C@H](O)[C@]6(O)CC=CC(=O)[C@]6(C)[C@H]5CC[C@@]43C)[C@@H](C1)OC(=O)[C@]2(C)O` (stereo partly drawn) [ANOMANOLIDE E]: the concentration for half-maximal inhibition (IC50) (with MCF7; in the experiment with MDA-MB-231; in the experiment on A549; in the experiment with HepG2; in experiment [1]) was greater than 20 µg/mL in each case.
Consider `CC1=C(C)C(=O)O[C@@H]([C@@H](C)[C@@]2(O)CC[C@H]3[C@@H]4C[C@H]5O[C@]56[C@@H](O)C=CC(=O)[C@]6(C)[C@H]4CC[C@@]32C)C1`, for which the IC50 with MCF7 came out at 1.98 µg/mL (≈ 4.21 µM); in the experiment on MDA-MB-231, 0.99 µg/mL (≈ 2.1 µM); in the experiment on MRC5, 0.81 µg/mL (≈ 1.72 µM); in the experiment with A549, 0.88 µg/mL (≈ 1.87 µM); with HepG2, 0.64 µg/mL (≈ 1.36 µM); in experiment [1], 0.8 µg/mL (≈ 1.7 µM).
Regarding `CC1=C(C)C(=O)O[C@@H]([C@](C)(O)[C@@]2(O)CC[C@H]3[C@@H]4C[C@H]5O[C@]56[C@@H](O)C=CC(=O)[C@]6(C)[C@H]4CC[C@@]32C)C1`, the concentration for half-maximal inhibition (IC50) stood at 1.45 µg/mL (≈ 2.98 µM) with MCF7; 0.71 µg/mL (≈ 1.46 µM) in the experiment on MDA-MB-231; 1.89 µg/mL (≈ 3.88 µM) in the experiment with MRC5; 0.72 µg/mL (≈ 1.48 µM) with A549; 0.49 µg/mL (≈ 1.01 µM) in the experiment on HepG2; 0.85 µg/mL (≈ 1.75 µM) in experiment [1].
`CC1=C(C)C(=O)O[C@@H]([C@@H](C)[C@@]2(C)C3=C(C[C@H]2O)[C@@H]2C[C@H](O)[C@]4(O)[C@@H](O)C=CC(=O)[C@]4(C)[C@H]2CC3)C1` [TUBOCAPSENOLIDE F]: the 50% inhibitory concentration (IC50) in the experiment on MCF7 was 14.7 µg/mL (≈ 30.2 µM); in the experiment with MDA-MB-231, 8.41 µg/mL (≈ 17.3 µM); with A549, 6.04 µg/mL (≈ 12.4 µM); in the experiment on HepG2, greater than 20 µg/mL; in experiment [1], 15.1 µg/mL (≈ 31 µM).
On to `C[C@@]12CC([C@@]3(O)[C@H](O)C[C@H]4[C@@H]5C[C@H]6O[C@]67[C@@H](O)C=CC(=O)[C@]7(C)[C@H]5CC[C@@]43C)[C@@H](C1)OC(=O)[C@]2(C)O` (stereo partly drawn) [ANOMANOLIDE C], for which the half-maximal inhibitory concentration (IC50) with MCF7 came out at 8.01 µg/mL (≈ 15.9 µM); in the experiment with MDA-MB-231 it was 1.58 µg/mL (≈ 3.14 µM); with A549 it was 2.8 µg/mL (≈ 5.57 µM); with HepG2, 4.41 µg/mL (≈ 8.77 µM); in experiment [1], 1.85 µg/mL (≈ 3.68 µM).
Take `C[C@@]12CC([C@@]3(O)CC[C@H]4[C@@H]5C[C@H](O)[C@]6(O)[C@@H](O)C=CC(=O)[C@]6(C)[C@H]5CC[C@@]43C)[C@@H](C1)OC(=O)[C@]2(C)O` (stereo partly drawn) [ANOMANOLIDE B]: the concentration for half-maximal inhibition (IC50) in the experiment with MCF7 amounted to 4.84 µg/mL (≈ 9.59 µM); in the experiment with MDA-MB-231, 0.7 µg/mL (≈ 1.39 µM); in the experiment on MRC5 it was 0.2 µg/mL (≈ 0.396 µM); in the experiment with A549, 1.49 µg/mL (≈ 2.95 µM); in the experiment on HepG2 it was 0.97 µg/mL (≈ 1.92 µM); in experiment [1] it was 3.17 µg/mL (≈ 6.28 µM).
As to `CC1=C(C)C(=O)O[C@@H]([C@@H](C)[C@@]23O[C@@H]2C[C@H]2[C@@H]4C[C@H]5O[C@]56[C@@H](O)C=CC(=O)[C@]6(C)[C@H]4CC[C@@]23C)C1` [TUBOCAPSANOLIDE A], the IC50 in the experiment on MCF7 is 1.47 µg/mL (≈ 3.14 µM); in the experiment on MDA-MB-231, 0.22 µg/mL (≈ 0.469 µM); with MRC5, 0.73 µg/mL (≈ 1.56 µM); in the experiment on A549, 0.47 µg/mL (≈ 1 µM); with HepG2, 0.86 µg/mL (≈ 1.84 µM); in experiment [1], 0.42 µg/mL (≈ 0.896 µM).
Turning to `CC1=C(CO)C(=O)O[C@@H]([C@@H](C)[C@H]2CC[C@H]3[C@@H]4C[C@H]5O[C@]56[C@@H](O)C=CC(=O)[C@]6(C)[C@H]4CC[C@]23C)C1` [WITHAFERIN A], the 50% inhibitory concentration (IC50) in the experiment with MCF7 was 0.05 µg/mL (≈ 0.106 µM); in the experiment on MDA-MB-231, 0.02 µg/mL (≈ 0.0425 µM); in the experiment on MRC5, 0.07 µg/mL (≈ 0.149 µM); in the experiment with A549 it was 0.02 µg/mL (≈ 0.0425 µM); in the experiment on HepG2 it was 0.06 µg/mL (≈ 0.127 µM); in experiment [1], 0.06 µg/mL (≈ 0.127 µM).
`C[C@@]12CC([C@@]3(O)CC[C@H]4[C@@H]5C[C@H]6O[C@]67[C@@H](O)C=CC(=O)[C@]7(C)[C@H]5CC[C@@]43C)[C@@H](C1)OC(=O)[C@]2(C)O` (stereo partly drawn) [ANOMANOLIDE A]: the 50% inhibitory concentration (IC50) turned out to be 2.31 µg/mL (≈ 4.75 µM) in the experiment with MCF7; 1.37 µg/mL (≈ 2.82 µM) in the experiment with MDA-MB-231; 1.91 µg/mL (≈ 3.93 µM) with MRC5; 1.01 µg/mL (≈ 2.08 µM) in the experiment on A549; 3.11 µg/mL (≈ 6.39 µM) in the experiment with HepG2; 3.63 µg/mL (≈ 7.46 µM) in experiment [1].
As to `C[C@]1(O)C[C@H]2OC(=O)[C@]1(C)C[C@H]2[C@@]1(O)[C@H](O)C[C@H]2[C@@H]3C[C@H](Cl)[C@]4(O)[C@@H](O)C=CC(=O)[C@]4(C)[C@H]3CC[C@@]21C` [TUBONOLIDE A], the 50% inhibitory concentration (IC50) was 12 µg/mL (≈ 22.3 µM) with MCF7; greater than 20 µg/mL in the experiment on MDA-MB-231; 5.91 µg/mL (≈ 11 µM) in the experiment on A549; 5.09 µg/mL (≈ 9.44 µM) in the experiment on HepG2; 6.54 µg/mL (≈ 12.1 µM) in experiment [1].
Take `CC1=C(C)C(=O)O[C@@H]([C@](C)(O)[C@@]23O[C@@H]2C[C@H]2[C@@H]4C[C@H]5O[C@]56[C@@H](O)C=CC(=O)[C@]6(C)[C@H]4CC[C@@]23C)C1` [20-HYDROXYTUBOCAPSANOLIDE A]: the half-maximal inhibitory concentration (IC50) in the experiment with MCF7 came out at 1.77 µg/mL (≈ 3.65 µM); in the experiment on MDA-MB-231, 0.99 µg/mL (≈ 2.04 µM); in the experiment on MRC5, 1.36 µg/mL (≈ 2.81 µM); with A549 it was 1.42 µg/mL (≈ 2.93 µM); with HepG2, 0.73 µg/mL (≈ 1.51 µM); in experiment [1] it was 0.99 µg/mL (≈ 2.04 µM).
Regarding `COc1cccc2c1C(=O)c1c(O)c3c(c(O)c1C2=O)C[C@@](O)(C(=O)CO)C[C@@H]3O[C@H]1C[C@H](N)[C@H](O)[C@H](C)O1` [DOXORUBICIN], the IC50 with MDA-MB-231 is 0.19 µg/mL (≈ 0.35 µM); with MRC5 it was 0.77 µg/mL (≈ 1.42 µM); in the experiment with A549, 0.42 µg/mL (≈ 0.773 µM); in the experiment with HepG2, 0.46 µg/mL (≈ 0.846 µM); in experiment [1], 0.45 µg/mL (≈ 0.828 µM).
Turning to `CC1=C(C)C(=O)O[C@@H]([C@@H](C)[C@@]2(O)CC[C@H]3[C@@H]4C[C@H](O)[C@]5(O)[C@@H](O)C=CC(=O)[C@]5(C)[C@H]4CC[C@@]32C)C1`, the IC50 with MCF7 was greater than 20 µg/mL; with MDA-MB-231, 13.5 µg/mL (≈ 27.6 µM); in the experiment with A549, 8.01 µg/mL (≈ 16.4 µM); with HepG2 it was greater than 20 µg/mL; in experiment [1], 7.19 µg/mL (≈ 14.7 µM).
For the compound `C[C@@]12CC([C@@]3(O)[C@H](O)C[C@H]4[C@@H]5CC[C@]6(O)[C@@H](O)C=CC(=O)[C@]6(C)[C@H]5CC[C@@]43C)[C@@H](C1)OC(=O)[C@]2(C)O` (stereo partly drawn) [ANOMANOLIDE F], the IC50 (in the experiment with MCF7; in the experiment with MDA-MB-231; in the experiment on A549; in the experiment with HepG2; in experiment [1]) was greater than 20 µg/mL in each case.
For `CC1=C(C)[C@H](O)[C@H]([C@@H](C)[C@@]23O[C@@H]2C[C@H]2[C@@H]4C[C@H]5O[C@]56[C@@H](O)C=CC(=O)[C@]6(C)[C@H]4CC[C@@]23C)OC1=O` [23-HYDROXYTUBOCAPSANOLIDE A], the 50% inhibitory concentration (IC50) turned out to be 2.05 µg/mL (≈ 4.23 µM) in the experiment on MCF7; 1.19 µg/mL (≈ 2.46 µM) in the experiment on MDA-MB-231; 0.9 µg/mL (≈ 1.86 µM) in the experiment with MRC5; 0.79 µg/mL (≈ 1.63 µM) with A549; 0.44 µg/mL (≈ 0.908 µM) in the experiment on HepG2; 0.49 µg/mL (≈ 1.01 µM) in experiment [1].
